Source: paper PMC7883726 (Acta Pharmaceutica Sinica. B, 2021)
Read-outs that look alike come from different tables or passages of the source.

Target: SARS-CoV-2 RdRp (Severe acute respiratory syndrome coronavirus 2, UniProt P0DTD1)
Assay: biochemical
Type: binding
Conditions: for koff: read-out: kdis
[1] = BLI, 1:1 binding model, compounds 3.125–100 μmol/L
[2] = KD, BLI, 1:1 binding model, compounds 3.125–100 μmol/L

SMILES | Kd [µM] | kdis [s⁻¹] | kon [M⁻¹ s⁻¹] | Kd [2] [µM] | koff [s⁻¹] | also measured
O=C(Nc1nc(-c2ccc(O)c(O)c2)c(-c2ccccc2)s1)c1ccc(O)c(O)c1 [RAI-S-34, COH29] | > 1000 | 0.189 | 8.10 |  |  | 
Cc1ccc(Oc2nc3cc(-c4ccc(-c5ccccc5)cc4)c(Cl)cc3[nH]2)cc1C(=O)O [RAI-S-45, MK-3903] | 220 ± 19.4 | 0.0665 | 302 |  |  | 
C[C@@H]1O[C@@H](OC[C@H]2O[C@@H](OCCc3ccc(O)c(O)c3)[C@H](O)[C@@H](O)[C@@H]2OC(=O)/C=C/c2ccc(O)c(O)c2)[C@H](O)[C@H](O)[C@H]1O [RAI-S-36, Forsythoside A] |  |  |  |  |  | Kd [1]: < 50 µM; Kd (BLI, 1:1 binding model, compounds 3.125–100 μmol/L, listed as 36): 1.16 ± 0.44 µM; kon (BLI, association rate constant): 137 M⁻¹ s⁻¹; kdis (BLI, dissociation rate constant): 0.000159 s⁻¹
O=C(O[C@@H]1O[C@@H]2COC(=O)c3cc(O)c(O)c(O)c3-c3c(cc(O)c(O)c3O)C(=O)O[C@H]([C@H]1O)[C@@H]2O)c1cc(O)c(O)c(O)c1 [RAI-S-37, Corilagin] |  |  | 496 | 0.54 ± 0.01 | 0.000268 | 
O=C(O)CCc1cc(C(=O)c2ccc(OC3CCCC3)cc2O)ccc1OCc1ccc2c(=O)[nH]oc2c1 [RAI-S-47, T-5224] | 38.7 ± 1.63 | 0.00774 | 200 |  |  | 
C[C@@H]1O[C@@H](OC[C@H]2O[C@@H](Oc3cc(O)c4c(=O)cc(-c5ccc(O)cc5)oc4c3)[C@H](O[C@@H]3O[C@@H](C)[C@H](O)[C@@H](O)[C@H]3O)[C@@H](O)[C@@H]2O)[C@H](O)[C@H](O)[C@H]1O [RAI-S-38, Ligustroflavone] |  |  |  |  |  | KD [1]: did not detect the binding
C[C@@H]1O[C@@H](O[C@@H]2[C@@H](O)[C@H](OCCc3ccc(O)c(O)c3)O[C@H](CO)[C@H]2OC(=O)/C=C/c2ccc(O)c(O)c2)[C@H](O)[C@H](O)[C@H]1O [RAI-S-11, Verbascoside] |  |  | 108 | 0.84 ± 0.85 | 9.05e-05 | 
CC1(C)CC[C@]2(C(=O)O)CC[C@]3(C)C(=CC[C@@H]4[C@@]5(C)CCC(=O)C(C)(C)[C@@H]5CC[C@]43C)[C@@H]2C1 [RAI-S-35, Oleanonic Acid] |  |  | 98.4 | 171 ± 35.9 | 0.0168 | 
COc1cc(C(=O)NS(=O)(=O)c2ccccc2C)ccc1Cc1cn(C)c2ccc(NC(=O)OC3CCCC3)cc12 [RAI-S-19, Zafirlukast] |  |  | 8.43 | > 1000 | 4.99 | 
